Holding throughout (type): in vivo
Series [1] deals with T1, tau (Homo sapiens, UniProt P10636, P618L).
T1 construct: BiFC fluorescent-protein fragments (two complementary halves); from tissue; host or cells: brain of TauP301L-BiFC transgenic mice
The experiment in a line: Tau-BiFC fluorescence imaging of brain tissue (tau oligomer/aggregate formation). To be noted: TauP301L-BiFC mice; oral 10 mg/kg, 19 weeks; vehicle = 100%. The protocol: After oral administration of Compounds 6, 16, and 20 and completion of behavioral experiments, 13.2-month-old TauP301L-BiFC mice were sacrificed to proceed with brain tissue extraction and [2] brain lysate separation and purification. • [1] First, brain tissue extraction, BiFC fluorescence imaging of brain tissue, and tau phosphorylation antibody immunofluorescence were performed through the following process. TauP301L-BiFC mice were perfused with 0.9% saline and fixed with PBS (pH 7.4) solution containing 4% paraformaldehyde. The brain was extracted and fixed in PBS containing 4% paraformaldehyde at 4°C for 48 to 72 hours. For cryoprotection, the brain was transferred to PBS containing 30% sucrose solution and stored at 4°C until it sank. For frozen sectioning, the brain was immersed in O.C.T (Tissue-TEK) and frozen, and then continuously cut using a brain tissue sectioner. Tissue sections with a thickness of 30 µm were stored in PBS containing 0.05% sodium azide at 4°C.
Brain tissue sections (n=10 per group) were placed on slides, stained with Sudan Black B solution (70% ethanol containing 0.05% Sudan Black B) for 10 minutes to reduce autofluorescence, washed 3 times with PBS containing 0.1% Triton X-100, and then washed with distilled water. For nuclear staining, brain tissue sections were stained with Hoechst (0.5 µg/mL) for 30 minutes. BiFC fluorescence (λex=460-490 nm and λem=500-550 nm) images were acquired using Axio Scan.Z1 (ZEISS). For quantitative analysis, the average BiFC-fluorescence intensity was measured in the somatosensory cortex (layer V) and hippocampus CA1, and the habenular region was used as a control region to reduce background fluorescence differences between brain samples. ImageJ software (NIH) was used to mark regions of interest and calculate fluorescence intensity values, and the data were expressed as the average fluorescence intensity and standard deviation of brain tissue images from 10 mice per group.
As a result of Tau-BiFC fluorescence imaging of four regions of total brain tissue (hippocampus (CA1), somatosensory cortex, cerebellum, brainstem), the degree of Tau-BiFC fluorescence appearing as tau aggregation early oligomer formation and aggregate formation was as follows: • (1) Hippocampus (CA1), vehicle = 100%, #20= 79%, p<0.05, #6= 80%, p<0.05, #16= 72%, p<0.001. • (2) Sensory cortex (SCTX), vehicle = 100%, #20= 72%, p<0.05, #6= 73%, p<0.05, #16= 66%, p<0.01. • (3) Cerebellum (CB), vehicle = 100%, #20= 64%, p<0.05, #6= 68%, ns, #16= 76%, n.s. • (4) Brain stem, vehicle = 100%, #20= 60%, p<0.05, #6= 62%, p<0.05, #16= 60%, p<0.05.

Series [2] is described as follows: Pharmacokinetic study in rats (IV and PO, plasma). Conditions: Sprague-Dawley, rat, SD rats. As for the experimental part:
The pharmacokinetics of the compounds prepared according to Examples 1 to 46 were studied using experimental animal models. Specifically, 7- to 8-week-old SD rats (Koatech, Hana Sangsa Co., Ltd.) weighing approximately 250 to 300 g were purchased and maintained in a small animal simple breeding room set at a temperature of 22 ± 2°C, relative humidity of 50 ± 5%, lighting time of 12 hours (lights on at 8 AM and lights off at 8 PM), and illumination of 150 to 300 lux. Throughout the entire test period, feed was provided ad libitum, RO water was provided ad libitum, and fasting was performed for 16 hours before oral administration of the drug. After preparing the drugs under the conditions shown in Table 7 below, the drugs were administered by intravenous injection (IV) or oral administration (PO). Collected blood at 500 µL was collected in tubes containing heparin sodium and centrifuged at 8000 rpm at 2 to 8°C for 6 minutes to obtain plasma from the blood. 20 µL of the obtained plasma was taken, added to 180 µL of acetonitrile containing an internal standard, vortexed, and centrifuged at 15,000 rpm at 4°C for 5 minutes, and the obtained supernatant was analyzed by LC-MS/MS. The HPLC and MS conditions used for analysis are shown in Tables 8 and 9 below, respectively.
Specific PK parameters were calculated using Phoenix WinNonlin 6.4 version (Pharsight, USA) program and a non-compartmental analysis model, and the results are summarized in Table 11 below.

For series [3], the target named is T1, tau. The experiment in a line: Tau phosphorylation immunoblot of RIPA-soluble brain lysates. Conditions: TauP301L-BiFC mice, oral 10 mg/kg, 19 weeks, vehicle = 100%. The protocol: [2] To verify the tau pathology inhibitory efficacy of the drug confirmed through brain tissue imaging via brain lysate immunoblot, brain lysates were separated and purified, and immunoblot using tau antibody was performed in soluble and insoluble fractions. The brain was weighed, and RIPA lysis buffer containing the corresponding dose of protease and phosphatase inhibitors was added to the brain tissue. The tissue was then disrupted using a homogenizer and incubated at 4°C for 2 hours, and then centrifuged at 13,200 rpm at 4°C for 20 minutes. After centrifugation, the supernatant was collected as a RIPA-soluble fraction and stored at -80°C. To prepare the RIPA-insoluble fraction, the remaining pellet was washed once with RIPA lysis buffer containing 1 M sucrose, and then 2% SDS solution (1 mL per 1 g of tissue) was added and incubated at room temperature for 1 hour. Thereafter, the mixture was centrifuged at 13,200 rpm for 1 minute at room temperature, and the supernatant was collected as a RIPA-insoluble fraction and stored at -80°C.
For tau immunoblot analysis, 20 µg of brain tissue RIPA-soluble sample was separated on a 10% SDS-PAGE gel and transferred to a PVDF membrane, and RIPA-insoluble samples were diluted 10-fold in 2% SDS solution and 20 µL of each sample was loaded on an SDS-PAGE gel. The total tau and phosphorylated tau levels were detected by Tau5, which is an anti-tau antibody, and pS199 and pS396, which are anti-phosphorylated tau antibodies. ImageJ software (NIH) was used to quantify band intensity.

T1 sequence (P10636 1-441 isoform P10636-8 P301L): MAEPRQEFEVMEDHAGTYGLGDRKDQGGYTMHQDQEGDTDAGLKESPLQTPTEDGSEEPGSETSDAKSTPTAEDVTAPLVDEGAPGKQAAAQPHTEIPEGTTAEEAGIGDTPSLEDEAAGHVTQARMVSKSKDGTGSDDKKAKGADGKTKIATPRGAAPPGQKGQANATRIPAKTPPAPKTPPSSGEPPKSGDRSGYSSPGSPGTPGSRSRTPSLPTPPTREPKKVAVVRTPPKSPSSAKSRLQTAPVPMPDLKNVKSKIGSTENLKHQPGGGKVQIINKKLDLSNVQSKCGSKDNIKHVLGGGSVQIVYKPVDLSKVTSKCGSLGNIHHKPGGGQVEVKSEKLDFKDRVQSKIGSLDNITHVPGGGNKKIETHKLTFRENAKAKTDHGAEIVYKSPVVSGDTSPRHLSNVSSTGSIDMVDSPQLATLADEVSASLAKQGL

Turning to `Cn1c(N2CCOCC2)nc2cc(NN=C(C#N)C#N)ccc21` [Compound 6, (1-methyl-2-morpholino-1H-benzo[d]imidazol-5-yl)carbonohydrazonoyl dicyanide], at tau [1], the “Tau-BiFC fluorescence, Brain stem” value stood at 62%; the “Tau-BiFC fluorescence, Cerebellum (CB)” value worked out at 68%; the “Tau-BiFC fluorescence, Hippocampus (CA1)” value is 80%; the “Tau-BiFC fluorescence, Sensory cortex (SCTX)” value (“Tau-BiFC fluorescence … (SCTX)” for short) came to 73%. Further, the bioavailability in series [2] (IV 2 mg/kg, PO 10 mg/kg) came out at 42%. Also, in series [2] (IV, 2 mg/kg), the AUC came to 1700 ng·h/mL, the peak level (Cmax) was 9870 ng/mL, the clearance came out at 19.5 mL/min/kg and the half-life is 34.8 min. Moreover, in series [2] (PO, 10 mg/kg), the AUC was determined as 3570 ng·h/mL, the highest level (Cmax) was 4880 ng/mL, the time to peak (Tmax) came out at 15 min and the half-life is 53.4 min. For the same compound, at tau [3], the “pS199 tau phosphorylation immunoblot” value is recorded as 48% and the “pS396 tau phosphorylation immunoblot” value is reported as 60%.

On to `CC1COCCN1c1nc2ccc(NN=C(C#N)C#N)cc2o1` (centres unmarked) [Compound 16, (2-(3-methylmorpholino)benzo[d]oxazol-6-yl)carbonohydrazonoyl dicyanide], for which, at tau [1], the “Tau-BiFC fluorescence, Brain stem” value amounted to 60%; the “Tau-BiFC fluorescence, Cerebellum (CB)” value is 76%; the “Tau-BiFC fluorescence, Hippocampus (CA1)” value is on record as 72%; the “Tau-BiFC fluorescence … (SCTX)” value turned out to be 66%. In addition, the bioavailability in series [2] (IV 2 mg/kg, PO 10 mg/kg) came out at 114%. For the same compound, in series [2] (IV, 2 mg/kg), the AUC came out at 4090 ng·h/mL, the Cmax stood at 4090 ng/mL, the clearance was found to be 8.33 mL/min/kg and the half-life was 30.6 min. For the same compound, in series [2] (PO, 10 mg/kg), the AUC worked out at 23300 ng·h/mL, the peak level (Cmax) was 11100 ng/mL, the Tmax turned out to be 40.2 min and the half-life is 112 min. For the same compound, on tau [3], the “pS199 tau phosphorylation immunoblot” value is 24% and the “pS396 tau phosphorylation immunoblot” value amounted to 40%.

Consider `N#CC(C#N)=NNc1ccc2nc(N3C4CCC3COC4)oc2c1` [Compound 20, (2-(3-oxa-8-azabicyclo[3.2.1]octan-8-yl)benzo[d]oxazol-6-yl)carbonohydrazonoyl dicyanide], for which, at tau [1], the “Tau-BiFC fluorescence, Brain stem” value was 60%; the “Tau-BiFC fluorescence, Cerebellum (CB)” value turned out to be 64%; the “Tau-BiFC fluorescence, Hippocampus (CA1)” value is listed as 79%; the “Tau-BiFC fluorescence … (SCTX)” value is 72%. Further, in series [2] (IV 1 mg/kg, PO 15 mg/kg), the bioavailability worked out at 114%. Moreover, in series [2] (IV, 1 mg/kg), the AUC is 130 ng·h/mL, the clearance was 132 mL/min/kg and the half-life was 12 min. In series [2] (PO, 15 mg/kg), the AUC is 2210 ng·h/mL, the Cmax was 2050 ng/mL, the Tmax was 24 min and the half-life was 96 min. At tau [3], the “pS199 tau phosphorylation immunoblot” value came to 60% and the “pS396 tau phosphorylation immunoblot” value is 71%.

In general, AUC refers to the area under the concentration-time curve, a measure of exposure. A high value points to high exposure. For orientation: Cmax means the peak of the concentration-time curve. What is called half-life is how long it takes for the measured level to halve. Read a high half-life as slow loss. In general, Tmax refers to the time from dosing to the highest level.

The record behind these values is patent publication EP4737445A1, “NOVEL SATURATED HETEROCYCLE-SUBSTITUTED HETEROARYL-CARBONOHYDRAZONOYL DICYANIDE COMPOUND AND USE THEREOF” (Korea Institute of Science and Technology, priority 2023, dated 2025).
